Results on two molecules are retold here after ChEMBL document CHEMBL2346515, “Discovery of 4-alkylamino-7-aryl-3-cyanoquinoline LRRK2 kinase inhibitors” (Bioorg Med Chem Lett, 2013).

In test [1] the target is T1, Dual specificity protein kinase TTK (Homo sapiens) (UniProt P33981).
T1 sequence (whole entry): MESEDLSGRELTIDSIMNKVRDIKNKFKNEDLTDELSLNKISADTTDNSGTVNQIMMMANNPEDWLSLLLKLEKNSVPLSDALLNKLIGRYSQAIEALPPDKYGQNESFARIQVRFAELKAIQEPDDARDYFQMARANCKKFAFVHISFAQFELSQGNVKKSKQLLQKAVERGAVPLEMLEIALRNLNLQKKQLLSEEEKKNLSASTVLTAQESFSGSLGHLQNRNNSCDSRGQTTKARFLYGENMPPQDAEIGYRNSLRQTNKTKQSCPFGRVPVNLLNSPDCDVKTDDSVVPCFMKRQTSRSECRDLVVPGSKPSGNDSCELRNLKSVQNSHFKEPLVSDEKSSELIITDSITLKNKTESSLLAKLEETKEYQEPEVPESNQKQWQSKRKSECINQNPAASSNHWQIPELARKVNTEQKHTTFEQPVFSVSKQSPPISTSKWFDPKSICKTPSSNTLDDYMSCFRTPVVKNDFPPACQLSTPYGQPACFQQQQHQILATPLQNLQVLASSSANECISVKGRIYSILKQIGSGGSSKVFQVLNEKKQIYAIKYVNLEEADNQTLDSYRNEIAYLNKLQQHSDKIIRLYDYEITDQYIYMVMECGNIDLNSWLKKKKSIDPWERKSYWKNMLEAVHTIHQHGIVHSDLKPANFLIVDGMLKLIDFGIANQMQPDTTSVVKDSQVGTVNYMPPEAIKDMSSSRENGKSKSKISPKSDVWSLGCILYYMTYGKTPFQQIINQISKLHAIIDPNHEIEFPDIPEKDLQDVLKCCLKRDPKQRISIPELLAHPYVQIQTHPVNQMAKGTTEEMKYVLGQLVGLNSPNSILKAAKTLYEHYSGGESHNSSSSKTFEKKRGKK
The test is described as follows: Inhibition of TTK (unknown origin) at 1 uM by single point assay.

Test [2] deals with Serine/threonine-protein kinase 16 (Homo sapiens) (UniProt O75716). The test is described as follows: Inhibition of STK16 (unknown origin) at 1 uM by single point assay.
Sequence of Serine/threonine-protein kinase 16 (Homo sapiens) (O75716 whole entry): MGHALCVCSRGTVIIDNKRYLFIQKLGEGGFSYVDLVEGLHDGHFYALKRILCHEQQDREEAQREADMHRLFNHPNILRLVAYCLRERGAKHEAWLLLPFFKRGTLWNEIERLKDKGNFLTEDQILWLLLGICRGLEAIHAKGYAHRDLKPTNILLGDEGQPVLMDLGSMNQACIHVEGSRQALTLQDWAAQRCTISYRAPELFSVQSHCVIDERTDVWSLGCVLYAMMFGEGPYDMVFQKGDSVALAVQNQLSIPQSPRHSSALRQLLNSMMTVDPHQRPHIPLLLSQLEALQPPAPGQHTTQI
For test [3], the target named is Protein-tyrosine kinase 2-beta (Homo sapiens) (UniProt Q14289). Put plainly: Inhibition of PTK2B (unknown origin) at 1 uM by single point assay.
Sequence of Protein-tyrosine kinase 2-beta (Homo sapiens) (Q14289 whole entry, looked up): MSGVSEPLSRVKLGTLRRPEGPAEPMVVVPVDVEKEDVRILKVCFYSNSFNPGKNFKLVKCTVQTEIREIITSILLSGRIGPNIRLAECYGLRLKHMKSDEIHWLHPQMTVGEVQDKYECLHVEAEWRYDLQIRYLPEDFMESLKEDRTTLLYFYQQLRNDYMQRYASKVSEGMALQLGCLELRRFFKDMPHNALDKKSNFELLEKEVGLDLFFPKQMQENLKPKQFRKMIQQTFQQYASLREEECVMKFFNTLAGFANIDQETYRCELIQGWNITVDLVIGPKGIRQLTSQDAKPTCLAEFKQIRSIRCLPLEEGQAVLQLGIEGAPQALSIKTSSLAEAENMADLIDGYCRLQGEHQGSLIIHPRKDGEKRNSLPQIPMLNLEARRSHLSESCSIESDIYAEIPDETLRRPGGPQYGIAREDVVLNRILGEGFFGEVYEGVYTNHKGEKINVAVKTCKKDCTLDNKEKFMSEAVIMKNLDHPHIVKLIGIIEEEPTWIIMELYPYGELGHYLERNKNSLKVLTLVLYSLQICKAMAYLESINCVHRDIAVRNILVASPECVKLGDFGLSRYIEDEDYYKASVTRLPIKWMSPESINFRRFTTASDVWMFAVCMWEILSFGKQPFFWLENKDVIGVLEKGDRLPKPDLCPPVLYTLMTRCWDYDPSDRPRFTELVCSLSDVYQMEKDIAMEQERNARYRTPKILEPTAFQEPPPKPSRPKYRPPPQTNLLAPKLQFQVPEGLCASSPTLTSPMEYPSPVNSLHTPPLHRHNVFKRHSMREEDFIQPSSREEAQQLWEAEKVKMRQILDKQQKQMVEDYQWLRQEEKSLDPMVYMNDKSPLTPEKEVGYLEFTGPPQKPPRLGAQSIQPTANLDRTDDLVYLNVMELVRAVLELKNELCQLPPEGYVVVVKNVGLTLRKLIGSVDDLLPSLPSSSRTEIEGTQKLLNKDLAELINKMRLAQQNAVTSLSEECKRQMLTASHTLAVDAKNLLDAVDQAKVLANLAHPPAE
Test [4] has as its target Protein kinase C beta type (Homo sapiens) (UniProt P05771). The test is described as follows: Inhibition of PKCbeta1 (unknown origin) at 1 uM by single point assay.
The target of test [5] is cAMP-dependent protein kinase catalytic subunit alpha (Homo sapiens) (UniProt P17612). The test is described as follows: Inhibition of PRKACA (unknown origin) at 1 uM by single point assay.
Test [6] addresses Serine/threonine-protein kinase PLK3 (Homo sapiens) (UniProt Q9H4B4). The test is described as follows: Inhibition of PLK3 (unknown origin) at 1 uM by single point assay.
Test [7] addresses Serine/threonine-protein kinase PAK 4 (Homo sapiens) (UniProt O96013). The test is described as follows: Inhibition of PAK4 (unknown origin) at 1 uM by single point assay.
The target of test [8] is Serine/threonine-protein kinase MARK2 (Homo sapiens) (UniProt Q7KZI7). Put plainly: Inhibition of MARK2 (unknown origin) at 1 uM by single point assay.
In test [9] the target is T2, Mitogen-activated protein kinase kinase kinase 7 (Homo sapiens) (UniProt O43318).
T2 sequence (whole entry): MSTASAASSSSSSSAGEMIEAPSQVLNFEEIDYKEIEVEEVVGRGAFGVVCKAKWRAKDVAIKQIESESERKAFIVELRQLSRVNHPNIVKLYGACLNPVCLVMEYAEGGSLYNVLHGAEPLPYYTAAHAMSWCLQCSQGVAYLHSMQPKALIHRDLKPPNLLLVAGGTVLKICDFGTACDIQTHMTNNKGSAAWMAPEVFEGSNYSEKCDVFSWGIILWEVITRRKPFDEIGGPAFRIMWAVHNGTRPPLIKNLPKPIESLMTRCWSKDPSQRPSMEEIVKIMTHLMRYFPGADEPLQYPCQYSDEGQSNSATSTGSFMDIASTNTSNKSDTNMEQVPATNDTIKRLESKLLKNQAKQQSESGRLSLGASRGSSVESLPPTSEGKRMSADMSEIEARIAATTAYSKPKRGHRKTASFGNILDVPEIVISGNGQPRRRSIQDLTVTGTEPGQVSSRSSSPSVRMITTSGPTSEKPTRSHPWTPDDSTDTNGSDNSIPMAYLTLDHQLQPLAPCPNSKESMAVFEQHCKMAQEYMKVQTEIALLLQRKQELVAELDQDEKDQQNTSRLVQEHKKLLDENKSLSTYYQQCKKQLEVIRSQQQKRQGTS
The test is described as follows: Inhibition of MAP3K7 (unknown origin) at 1 uM by single point assay.

Test [10] has as its target Tyrosine-protein kinase Lck (Homo sapiens) (UniProt P06239). Put plainly: Inhibition of LCK (unknown origin) at 1 uM by single point assay.
The target of test [11] is Tyrosine-protein kinase JAK1 (Homo sapiens) (UniProt P23458). Put plainly: Inhibition of JAK1 (unknown origin) at 1 uM by single point assay.
Sequence of Tyrosine-protein kinase JAK1 (Homo sapiens) (P23458 whole entry): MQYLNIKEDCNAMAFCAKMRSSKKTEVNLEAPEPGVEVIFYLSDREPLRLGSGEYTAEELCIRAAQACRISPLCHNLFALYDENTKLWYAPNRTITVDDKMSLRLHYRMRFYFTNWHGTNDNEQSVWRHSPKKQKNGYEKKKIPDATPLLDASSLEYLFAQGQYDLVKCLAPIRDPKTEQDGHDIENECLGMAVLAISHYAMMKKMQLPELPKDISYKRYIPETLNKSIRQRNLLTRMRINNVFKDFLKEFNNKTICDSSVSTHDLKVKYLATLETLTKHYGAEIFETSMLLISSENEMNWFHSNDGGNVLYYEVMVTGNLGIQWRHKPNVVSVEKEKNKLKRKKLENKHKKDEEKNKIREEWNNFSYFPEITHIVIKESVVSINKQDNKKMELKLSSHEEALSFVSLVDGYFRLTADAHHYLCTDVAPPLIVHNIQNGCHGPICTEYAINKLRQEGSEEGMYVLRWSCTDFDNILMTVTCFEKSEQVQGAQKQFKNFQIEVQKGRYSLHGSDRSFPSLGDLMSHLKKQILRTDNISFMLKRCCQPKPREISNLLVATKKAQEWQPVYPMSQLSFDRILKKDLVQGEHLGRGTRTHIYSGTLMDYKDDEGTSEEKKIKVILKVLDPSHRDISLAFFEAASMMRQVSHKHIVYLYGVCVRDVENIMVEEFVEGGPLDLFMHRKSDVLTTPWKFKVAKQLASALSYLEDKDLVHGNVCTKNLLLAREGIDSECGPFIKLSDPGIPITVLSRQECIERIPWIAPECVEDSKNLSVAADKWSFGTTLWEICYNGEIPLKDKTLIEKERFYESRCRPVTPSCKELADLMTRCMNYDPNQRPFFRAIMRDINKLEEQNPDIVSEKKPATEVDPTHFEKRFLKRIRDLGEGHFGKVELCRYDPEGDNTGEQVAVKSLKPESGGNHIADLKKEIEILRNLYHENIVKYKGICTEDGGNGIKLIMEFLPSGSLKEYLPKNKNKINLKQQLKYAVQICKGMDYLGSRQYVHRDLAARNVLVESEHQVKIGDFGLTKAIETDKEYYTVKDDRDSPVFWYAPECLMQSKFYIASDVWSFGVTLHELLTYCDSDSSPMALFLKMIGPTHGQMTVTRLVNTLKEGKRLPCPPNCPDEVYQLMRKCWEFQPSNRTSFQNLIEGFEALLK
Test [12] deals with Receptor-type tyrosine-protein kinase FLT3 (Homo sapiens) (UniProt P36888). The test is described as follows: Inhibition of FLT3 (unknown origin) at 1 uM by single point assay.
Sequence of Receptor-type tyrosine-protein kinase FLT3 (Homo sapiens) (P36888 whole entry): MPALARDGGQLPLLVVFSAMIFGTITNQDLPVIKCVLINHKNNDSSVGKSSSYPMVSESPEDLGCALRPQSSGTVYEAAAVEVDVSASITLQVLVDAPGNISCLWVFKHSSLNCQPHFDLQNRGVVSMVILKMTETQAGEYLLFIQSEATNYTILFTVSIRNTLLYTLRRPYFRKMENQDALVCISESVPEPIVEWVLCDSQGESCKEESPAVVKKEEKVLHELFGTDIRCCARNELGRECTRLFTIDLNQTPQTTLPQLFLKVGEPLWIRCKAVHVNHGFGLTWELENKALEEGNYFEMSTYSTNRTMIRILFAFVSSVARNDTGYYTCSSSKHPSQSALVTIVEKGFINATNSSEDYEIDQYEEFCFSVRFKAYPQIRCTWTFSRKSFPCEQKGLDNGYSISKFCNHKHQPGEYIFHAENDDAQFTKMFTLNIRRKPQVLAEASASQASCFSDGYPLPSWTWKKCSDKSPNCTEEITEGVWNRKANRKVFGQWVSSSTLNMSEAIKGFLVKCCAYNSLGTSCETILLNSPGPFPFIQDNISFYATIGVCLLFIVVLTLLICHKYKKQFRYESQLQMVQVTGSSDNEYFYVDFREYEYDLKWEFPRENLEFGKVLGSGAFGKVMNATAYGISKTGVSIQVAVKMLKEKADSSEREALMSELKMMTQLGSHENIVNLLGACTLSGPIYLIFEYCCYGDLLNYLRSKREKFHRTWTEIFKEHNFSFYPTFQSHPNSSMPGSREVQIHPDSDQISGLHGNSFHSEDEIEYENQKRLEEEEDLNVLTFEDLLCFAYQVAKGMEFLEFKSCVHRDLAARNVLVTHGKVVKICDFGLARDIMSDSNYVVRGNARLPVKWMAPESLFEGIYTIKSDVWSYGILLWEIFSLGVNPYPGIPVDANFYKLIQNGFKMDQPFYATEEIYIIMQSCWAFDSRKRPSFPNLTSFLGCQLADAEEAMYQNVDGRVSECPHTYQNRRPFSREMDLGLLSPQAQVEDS
Test [13] concerns the target Glycogen synthase kinase-3 beta (Homo sapiens) (UniProt P49841). The test is described as follows: Inhibition of GSK3beta (unknown origin) at 1 uM by single point assay.
In test [14] the target is Macrophage colony-stimulating factor 1 receptor (Homo sapiens) (UniProt P07333). Put plainly: Inhibition of CSF1R (unknown origin) at 1 uM by single point assay.
For test [15], the target named is Cyclin-dependent kinase 1/cyclin B1 (Homo sapiens) (UniProt P06493+P14635). The test is described as follows: Inhibition of CDK1/cyclin B (unknown origin) at 1 uM by single point assay. The format is protein-complex assay.
Test [16] concerns the target T3, Aurora kinase A (Homo sapiens) (UniProt O14965).
T3 sequence (whole entry): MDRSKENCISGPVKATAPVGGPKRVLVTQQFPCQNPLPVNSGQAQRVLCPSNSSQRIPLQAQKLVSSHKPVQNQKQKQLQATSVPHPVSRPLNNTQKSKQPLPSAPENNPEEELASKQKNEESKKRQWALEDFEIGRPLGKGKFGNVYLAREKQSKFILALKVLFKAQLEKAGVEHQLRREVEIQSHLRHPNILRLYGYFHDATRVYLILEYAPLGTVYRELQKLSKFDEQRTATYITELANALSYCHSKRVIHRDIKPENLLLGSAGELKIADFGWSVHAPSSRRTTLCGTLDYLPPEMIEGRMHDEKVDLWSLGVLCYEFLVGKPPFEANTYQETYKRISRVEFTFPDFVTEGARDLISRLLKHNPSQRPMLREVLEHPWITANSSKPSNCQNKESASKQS
The test is described as follows: Inhibition of AURKA (unknown origin) at 1 uM by single point assay.

Test [17] addresses Calcium/calmodulin-dependent protein kinase type II subunit alpha (Homo sapiens) (UniProt Q9UQM7). The test is described as follows: Inhibition of CAMK2alpha (unknown origin) at 1 uM by single point assay.

Sequence of Glycogen synthase kinase-3 beta (Homo sapiens) (P49841 whole entry, looked up): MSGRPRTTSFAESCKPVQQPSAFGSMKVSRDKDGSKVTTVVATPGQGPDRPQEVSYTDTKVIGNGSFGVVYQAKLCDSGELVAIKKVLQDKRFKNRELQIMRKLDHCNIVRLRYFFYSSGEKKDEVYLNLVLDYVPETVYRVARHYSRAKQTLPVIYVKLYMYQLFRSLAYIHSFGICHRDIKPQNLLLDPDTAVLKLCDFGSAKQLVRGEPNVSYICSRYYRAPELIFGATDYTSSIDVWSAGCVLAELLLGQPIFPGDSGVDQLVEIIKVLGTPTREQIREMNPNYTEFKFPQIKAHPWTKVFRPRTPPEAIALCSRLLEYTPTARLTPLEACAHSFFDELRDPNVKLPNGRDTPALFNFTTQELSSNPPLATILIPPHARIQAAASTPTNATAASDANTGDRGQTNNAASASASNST
Sequence of Serine/threonine-protein kinase PLK3 (Homo sapiens) (Q9H4B4 whole entry, looked up): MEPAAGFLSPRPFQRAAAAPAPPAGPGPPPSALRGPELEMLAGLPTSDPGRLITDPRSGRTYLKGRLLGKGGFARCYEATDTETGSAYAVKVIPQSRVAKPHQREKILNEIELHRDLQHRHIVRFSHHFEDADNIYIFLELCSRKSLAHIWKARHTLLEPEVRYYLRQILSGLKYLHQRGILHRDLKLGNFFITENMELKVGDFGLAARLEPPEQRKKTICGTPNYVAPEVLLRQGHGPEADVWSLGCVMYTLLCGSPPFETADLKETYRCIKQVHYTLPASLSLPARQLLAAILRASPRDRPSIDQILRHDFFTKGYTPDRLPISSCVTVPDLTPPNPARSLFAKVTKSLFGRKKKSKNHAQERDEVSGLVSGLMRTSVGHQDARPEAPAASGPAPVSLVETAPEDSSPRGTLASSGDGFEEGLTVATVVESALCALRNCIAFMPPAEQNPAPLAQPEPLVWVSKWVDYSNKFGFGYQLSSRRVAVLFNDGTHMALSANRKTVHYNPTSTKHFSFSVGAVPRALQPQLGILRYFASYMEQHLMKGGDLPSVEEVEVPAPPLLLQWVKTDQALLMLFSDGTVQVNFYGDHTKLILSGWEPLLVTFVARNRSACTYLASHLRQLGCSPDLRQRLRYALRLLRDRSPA
Sequence of Calcium/calmodulin-dependent protein kinase type II subunit alpha (Homo sapiens) (Q9UQM7 whole entry): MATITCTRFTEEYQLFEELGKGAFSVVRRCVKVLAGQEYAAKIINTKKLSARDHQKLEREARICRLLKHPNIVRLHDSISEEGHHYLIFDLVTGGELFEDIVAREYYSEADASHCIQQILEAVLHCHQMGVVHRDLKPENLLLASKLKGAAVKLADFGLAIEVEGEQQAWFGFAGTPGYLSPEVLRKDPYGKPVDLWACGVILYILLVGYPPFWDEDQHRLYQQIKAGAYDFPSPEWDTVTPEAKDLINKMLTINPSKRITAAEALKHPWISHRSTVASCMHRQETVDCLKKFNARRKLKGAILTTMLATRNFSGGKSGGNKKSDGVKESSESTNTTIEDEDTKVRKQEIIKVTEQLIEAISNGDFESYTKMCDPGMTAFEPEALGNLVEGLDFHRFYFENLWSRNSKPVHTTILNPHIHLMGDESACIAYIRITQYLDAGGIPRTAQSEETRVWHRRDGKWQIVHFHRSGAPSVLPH

Consider `CC(C)Nc1c(C#N)cnc2cc(-c3ccc(S(C)(=O)=O)cc3)ccc12`, for which the inhibition in test [1] was -4%; in test [2], 3%; in [3], 33%; in test [4], 19%; in test [5], 9%; in test [6] it was 13%. Moreover, the inhibition in test [7] worked out at 15%; in test [8], 52%; in test [9], 7%; in test [10] it was 26%; in test [11], 16%; in test [12] it was 16%. The inhibition in test [13] worked out at 28%; in test [14], 60%; in test [15], 12%; in [16], 71%; in [17], 25%.

With `CC(C)Nc1c(C#N)cnc2cc(-c3cnn(C)c3)ccc12`, the inhibition in test [1] was -9%; in [2], 10%; in test [3], 12%; in test [4], -7%; in test [5], 9%; in test [6], 12%. The inhibition was 41% in test [7]; 64% in test [8]; 51% in test [9]; 31% in test [10]; 3% in [11]; 84% in [12]. Further, the inhibition in test [13] worked out at 6%; in test [14], 67%; in [15], 14%; in test [16] it was 89%; in test [17], 27%.
